The test system of experiment [1] is Rattus norvegicus. As to the kind of experiment: Serum NEFA levels in female obese rats one week post treatment at 3 mg/kg oral dose; pretreatment value = 1.2 mg/dL. Type of experiment: functional.
In experiment [2] the test system is Rattus norvegicus. Briefly: Serum Triglyceride levels in female obese rats one week post treatment at 3 mg/kg oral dose; pretreatment value = 769 mg/dL. Format: functional.
For experiment [3], the system named is Rattus norvegicus. As to the kind of experiment: Serum HDL cholesterol levels in female obese rats one week post treatment at 10 mg/kg oral dose; pretreatment value = 56 mg/dL. Type of experiment: functional.
Experiment [4] deals with Rattus norvegicus. Briefly: Serum Triglyceride levels in female obese rats two weeks post treatment at 100 mg/kg oral dose; pretreatment value = 746 mg/dL. Type of experiment: functional.
Experiment [5] has as its system Rattus norvegicus. As to the kind of experiment: Serum HDL cholesterol levels in female obese rats one week post treatment at 100 mg/kg oral dose; pretreatment value = 58 mg/dL. Format: functional.
Experiment [6] relates to Rattus norvegicus. As to the kind of experiment: Serum Non-HDL cholesterol levels in female obese rats two weeks post treatment at 3 mg/kg oral dose; pretreatment value = 29 mg/dL.
The subject of experiment [7] is Rattus norvegicus. Briefly: Serum HDL cholesterol levels in female obese rats one week post treatment at 10 mg/kg oral dose; pretreatment value = 61 mg/dL. Type of experiment: functional.
The subject of experiment [8] is Rattus norvegicus. As to the kind of experiment: Insulin levels in female obese rats two weeks post treatment at 100 mg/kg oral dose; pretreatment value = 8.6 ng/mL. Format: functional.
The subject of experiment [9] is Rattus norvegicus. Briefly: Serum NEFA levels in female obese rats one week post treatment at 100 mg/kg oral dose; pretreatment value = 1.2 mg/dL. Type of experiment: functional.
Experiment [10] has as its system Rattus norvegicus. Briefly: Insulin levels in female obese rats one week post treatment at 30 mg/kg oral dose; pretreatment value = 9 ng/mL. Format: functional.
Experiment [11] relates to Rattus norvegicus. As to the kind of experiment: Insulin levels in female obese rats two weeks post treatment at 3 mg/kg oral dose; pretreatment value = 13.3 ng/mL. Type of experiment: functional.

Experimental findings from ChEMBL document CHEMBL1137218, “Long hydrocarbon chain ether diols and ether diacids that favorably alter lipid disorders in vivo” (J Med Chem, 2004) are described below.

Take `CC(C)(CO)CCCCOCCCCC(C)(C)CO`: the Activity stood at 1.7 mg/dL in the experiment with Rattus norvegicus [1], 770 mg/dL with Rattus norvegicus [2], 100 mg/dL in the experiment with Rattus norvegicus [3] and 219 mg/dL in the experiment with Rattus norvegicus [4].

Take `CC(C)(CO)CCCCCOCCCCCC(C)(C)CO`: the Activity in the experiment with Rattus norvegicus [5] came to 115 mg/dL; with Rattus norvegicus [6] it was 29 mg/dL; with Rattus norvegicus [7], 92 mg/dL; with Rattus norvegicus [8], 4.4 ng/mL; in the experiment with Rattus norvegicus [9], 1.2 mg/dL; in the experiment with Rattus norvegicus [10], 12.4 ng/mL. In addition, in the experiment on Rattus norvegicus [11], the Activity came to 11.4 ng/mL.
